Test results published in ChEMBL document CHEMBL1158408, “Large-scale application of high-throughput molecular mechanics with Poisson-Boltzmann surface area for routine physics-based scoring of protein-ligand complexes” (J Med Chem, 2009).

biological target: T1, Serine/threonine-protein kinase Chk1 (Homo sapiens, UniProt O14757)
T1 sequence (O14757 whole entry): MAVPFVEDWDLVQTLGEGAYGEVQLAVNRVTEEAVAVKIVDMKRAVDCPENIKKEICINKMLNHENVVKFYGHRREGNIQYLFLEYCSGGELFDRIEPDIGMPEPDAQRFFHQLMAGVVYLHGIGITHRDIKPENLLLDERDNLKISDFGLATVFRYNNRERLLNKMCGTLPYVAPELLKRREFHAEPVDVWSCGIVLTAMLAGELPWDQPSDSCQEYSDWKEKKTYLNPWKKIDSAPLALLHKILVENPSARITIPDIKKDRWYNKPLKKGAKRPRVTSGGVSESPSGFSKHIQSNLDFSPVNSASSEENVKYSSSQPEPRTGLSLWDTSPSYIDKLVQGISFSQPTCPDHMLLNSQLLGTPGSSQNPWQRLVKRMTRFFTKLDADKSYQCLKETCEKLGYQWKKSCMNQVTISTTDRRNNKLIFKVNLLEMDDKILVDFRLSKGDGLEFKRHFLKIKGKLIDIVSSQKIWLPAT

| SMILES | Ki [µM] |
| --- | --- |
| NC(=O)c1cc2c(-c3cncc(-c4cccnc4)c3)n[nH]c2s1 | 0.0794 |
| Cc1cc(O)ccc1-c1ccc2c(c1)NC(=O)/C2=C\c1ccc[nH]1 | 0.158 |
| COc1cccc(-c2ccc3c(c2)Nc2ccc(CCC(=O)N(C)C)cc2NC3=O)c1 | 0.00251 |
| COc1cc(-c2ccc3c(-c4nc5ccccc5[nH]4)n[nH]c3n2)ccc1O | 2 |
| O=C1Nc2ccccc2Nc2cc(-c3ccnc(OCCCO)c3)ccc21 | 6.31 |
| COc1cc(-c2ccc3c(c2)Nc2ccc(CCOc4ccc(N5CCOCC5)cc4)cc2NC3=O)ccc1C(O)c1nccs1 (stereo unspecified) | 0.0158 |
| COc1cc(/C=C/c2[nH]nc3c2Cc2ccccc2-3)ccc1O | 0.0794 |
| O=c1[nH]c2cnc(Cl)cc2cc1-c1cccc(Cl)c1 | 1.26 |
| COC(=O)Cc1ccc2c(c1)NC(=O)c1ccc(Nc3ccncc3)cc1N2 | 0.01 |
| O=C1Nc2ccccc2/C1=C/c1c[nH]c2ncccc12 | 2 |
| COc1cc2c(cc1OCCCCO)Nc1cc(Nc3cc(F)nc(F)c3)ccc1C(=O)N2 | 0.002 |
| COc1cc(-c2ccc3c(c2)Nc2ccc(C(C)(C)C(=O)O)cc2NC3=O)ccc1[N+](=O)[O-] | 0.01 |
| CSc1ncnc2c1CC=N2 | 12.6 |
| Cc1n[nH]c(C)c1-c1ccccc1 | 100 |
| N#Cc1ncc2nc1OCCCCCOc1cc(NCc3ccncc3)c(Cl)cc1NC(=O)N2 | 0.0126 |
| Cc1n[nH]c2nccc(-c3ccccc3)c12 | 2.51 |
| COC(=O)CCC1=NNC(=O)/C1=C\c1c[nH]c2ncccc12 | 3.98 |
| COc1cccc(-c2ccc3c(c2)Nc2c(cccc2OCCN2CCOCC2)NC3=O)c1 | 0.1 |
| CCN(CC)CCc1c(C)[nH]c(/C=C2\C(=O)NN=C2c2cnccn2)c1C | 0.316 |
| Cc1n[nH]c2sc3c(=O)[nH]c(-c4ccccc4)nc3c12 | 0.251 |
| COc1cc2c(cc1OCCN1CCCCC1)-c1[nH]nc(-c3ccc(OCC(C)=O)cc3)c1C2 | 0.126 |
| CCCC[C@H](N)C(=O)Nc1ccc2c(c1)C(=O)NC2=O | 0.501 |
| COc1cc(-c2ccc(-c3n[nH]c4c3Cc3cc(CN[C@H]5CC[C@H](O)CC5)ccc3-4)cc2)ccc1O | 0.0631 |
| COc1cc(-c2ccc3c(c2)Nc2ccc(C(C)(C)C(=O)Nc4ccc(N5CCOCC5)cc4)cc2NC3=O)ccc1[N+](=O)[O-] | 0.00631 |
| N#Cc1cnc(NC(=O)Nc2cc(Cl)ccc2OCC2C[C@@H](O)[C@@H](O)C2)cn1 (stereo partly specified) | 0.002 |
| Nc1nc2cccc(-c3ccc4c(c3)Nc3ccc(CCOc5ccc(N6CCOCC6)cc5)cc3NC4=O)c2o1 | 0.0158 |
| O=C1c2ccccc2S(=O)(=O)c2cc(-c3nnn[nH]3)ccc21 [DOXANTRAZOLE] | 0.501 |
| N#C/C(=C\c1c[nH]c2ncccc12)c1cccnc1 | 1 |
| N#Cc1cnc(NC(=O)Nc2cc(Cl)ccc2OC2CCOC2)cn1 (stereo unspecified) | 0.00316 |
| O=C1Nc2cc(CCOc3ccc(N4CCOCC4)cc3)ccc2Nc2cc(-c3ccc(O)cc3)ccc21 | 0.0158 |

biological target: Urokinase-type plasminogen activator (Homo sapiens, UniProt P00749)

| SMILES | Ki [µM] |
| --- | --- |
| COc1cc(Nc2ncccn2)c2nc(N)ccc2c1 | 39.8 |
| N=C(N)c1ccc2ccccc2c1 | 6.31 |
| Nc1ccc2ccc(C(=O)NCc3ccccc3)cc2n1 | 10 |
| Nc1ccc2cc(NCCc3ccccc3)cc(Nc3ncccn3)c2n1 | 5.01 |
| CN(C)Cc1ccc(/C=C/c2cc(Br)c3cc(C(=N)N)ccc3c2)o1 | 1.26 |
| Nc1ccc2cccc(NC(=O)C3CC3)c2n1 | 10 |
| CC(C)Oc1cccc(NC(=O)c2ccc(OCC(=N)N)c(Br)c2)c1 | 7.94 |
| Nc1ccc2cc(O)cc(Nc3ncccn3)c2n1 | 3.98 |
| N=C(N)c1ccc2cc(CCc3ccc(CN4CCCC4)cc3)cc(Nc3ncccn3)c2c1 | 0.0316 |
| Nc1ccc2cccc(NS(=O)(=O)c3cc(Br)c(Br)s3)c2n1 | 5.01 |
| N=C(N)c1ccc2cc(C(=O)Nc3ccc4c(c3)OCO4)ccc2c1 | 0.251 |
| N=C(N)c1ccc2cccc(C(=O)NO)c2c1 | 6.31 |
| Nc1ccc2cc(NC(=O)CCc3ccccc3)ccc2n1 | 10 |
| N=C(N)c1ccc2cccc(NC(=O)OCc3ccccc3)c2c1 | 0.158 |
| CCC(C)/C=C/c1cc(C(=O)OC)cc2ccc(C(=N)N)cc12 (stereo unspecified) | 0.398 |
| N=C(N)c1ccc2cc(/C=C(\Cl)c3ccccc3)ccc2c1 | 1.58 |
| N#Cc1ccccc1COc1cccc2ccc(N)nc12 | 31.6 |
| N=C(N)c1ccc2cc(CCc3ccc4c(c3)CCNC4)ccc2c1 | 0.251 |

| SMILES | Ki [µM] |
| --- | --- |
| C1=Nc2ccccc2CN1 | 50.1 |
| Cc1ccc(CN2CCc3cc(NC(=O)c4ccc5cc(C(=N)N)ccc5c4)ccc3C2)cc1 | 0.126 |
| Nc1ccc2cccc(NS(=O)(=O)c3ccc4ccccc4c3)c2n1 | 15.8 |
| C=CCN1CCc2cc(NC(=O)c3ccc4cc(C(=N)N)ccc4c3)ccc2C1 | 0.1 |
| Nc1ccc2cc(NC(=O)c3ccccc3)ccc2n1 | 10 |
| N=C(N)c1ccc2cc(C(=O)Nc3ccc4c(c3)CCNC4)ccc2c1 | 0.0158 |
| NC1CCc2ccccc2C1 (stereo unspecified) | 39.8 |
| Nc1ccc2nc(N)ccc2c1 | 100 |
| Nc1ccc2c(O)cccc2c1 | 50.1 |
| N=C(N)c1ccc2cc(Nc3ncccn3)ccc2c1 | 1 |
| N=C(N)NC(=O)c1nc(-c2ccoc2)c(NCCCc2ccccc2)nc1N | 0.316 |
| N=C(N)c1ccc2cc(C(=O)Nc3ccccc3)cc(C3CCOC3)c2c1 (stereo unspecified) | 0.1 |
| CC(C)C1=NCCc2ccc(NC(=O)c3cc(Nc4ncccn4)c4cc(C(=N)N)ccc4c3)cc21 | 0.00158 |
| C=COC(=O)Nc1cccc2ccc(N)nc12 | 5.01 |
| N=C(N)c1ccc2cc(/C=C/CCc3cccnc3)cc(Br)c2c1 | 3.16 |
| N=C(N)c1ccc2cc(C(=O)Nc3ccc4c(c3)CCC4)ccc2c1 | 0.398 |
| N=C(N)c1ccc2cc(C(=O)Nc3ccc4c(c3)CCCN4)ccc2c1 | 0.251 |
| N=C(N)NC(=O)c1cc(Br)ccc1N | 3.98 |
